Data from patent publication US20240374879A1, “METHODS AND COMPOSITIONS TO REDUCE CELLULAR DEPOSITION, AND HYDROCEPHALUS SHUNT FAILURE” (Wayne State University, priority 2021, published 2024).

Key:
A1 reactive astrocytes = assay: A1 reactive astrocyte attachment on PDMS coated plates (targeted drug delivery); format: cell-based, mouse; settings: 30 ng/ml, 48 h
Protocol: Purification of astrocytes by immunopanning: Astrocytes were purified by immunopanning from post-natal day (P) 5 mouse brains and cultured as previously described (Foo et al., Neuron. 71(5):799-811, 2011). Cerebral cortices were dissected and enzymatically digested using papain at 37° C. and 10% CO2. Tissue was then mechanically triturated with a serological pipette at RT to generate a single-cell suspension. The suspension was filtered and negatively panned for microglia/macrophage cells (CD45), oligodendrocyte progenitor cells (04 hybridoma), and endothelial cells (L1) followed by positive panning for astrocyte cells (ITGB5). Astrocytes were cultured in defined, serum-free medium containing 50% neurobasal, 50% DMEM, 100 U/mL penicillin, 100 μg/mL streptomycin, 1 mM sodium pyruvate, 292 μg/mL L-glutamine, 1×SATO, 5 μg/mL of N-acetyl cysteine, and 5 ng/mL HBEGF.
Targeted drug delivery: A1 reactive astrocytes were generated by culturing the purified astrocytes on PDMS coated tissue culture plates and then treating for 24 h with IL-1α (3 ng/ml, Sigma, 13901), TNF-α (30 ng/ml, Cell Signaling Technology, 8902SF), and C1q (400 ng/ml, MyBioSource, MBS143105). […]

A2 reactive astrocytes = assay: A2 reactive astrocyte attachment on PDMS coated plates (targeted drug delivery); format: cell-based, mouse; settings: 30 ng/ml, 48 h; FIG. 5B

TGF-β
A1 astrocyte reactive state (A1 reactive astrocytes): reset A1 astrocytes to a non-reactive state
attachment of A1 astrocytes on PDMS coated surfaces (A1 reactive astrocytes; FIG. 5A): significantly reducing
attachment of A2 astrocytes on PDMS coated surfaces (A2 reactive astrocytes): did not induce
